These results are taken from publication PMC5424641 (Biomolecules & Therapeutics, 2017).

Assay [1] has as its target T1, urotensin II receptor (hUT) (Homo sapiens, UniProt Q9UKP6).
T1 sequence (Q9UKP6 1-389): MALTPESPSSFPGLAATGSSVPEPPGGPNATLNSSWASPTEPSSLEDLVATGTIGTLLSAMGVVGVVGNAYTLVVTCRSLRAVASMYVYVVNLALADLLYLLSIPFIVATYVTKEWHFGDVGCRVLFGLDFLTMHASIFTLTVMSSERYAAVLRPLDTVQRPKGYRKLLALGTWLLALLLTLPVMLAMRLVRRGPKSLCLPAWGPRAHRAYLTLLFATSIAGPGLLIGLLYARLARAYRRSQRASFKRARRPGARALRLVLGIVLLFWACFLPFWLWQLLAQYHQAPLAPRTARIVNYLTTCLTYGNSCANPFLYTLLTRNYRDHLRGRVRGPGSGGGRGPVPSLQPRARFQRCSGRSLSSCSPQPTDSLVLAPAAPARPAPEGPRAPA
Put plainly: radioligand binding assay.

The target of assay [2] is T1, urotensin II receptor (hUT). Put plainly: radioligand binding assay. The source holds these as a separate data set.

The structures appear in SMILES notation. Structures can show the parent of a compound that is named as a salt. Where two headings read alike, the source gives them in different places.

Turning to `CN(C(=O)CN1C(=O)COc2cc(Cl)c(Cl)cc21)[C@@H](CN1CCOCC1)c1ccc(-c2ccc(C(=O)O)cc2)cc1` [GSK-1440115, 4′-[(1R)-1-[[(6,7-dichloro-3-oxo-2,3-dihydro-4H-1,4-benzoxazin-4-yl)acetyl](methyl)amino]-2-(4-morpholinyl)ethyl]-4-biphenylcarboxylic acid trifluoroacetate], the inhibition constant Ki in assay [1] stood at 31 nM.

Consider `O=C(NC1CCN(Cc2ccc(OC3CCNCC3)c(Br)c2)CC1)c1csc2ccccc12` [KR-36996, N-(1-(3-bromo-4-(piperidin-4-yloxy)benzyl)piperidin-4-yl)benzo[b]thiophene-3-carboxamide], for which, in assay [2], the Ki came to 4 nM.
